Reference: patent US7262318B2, “Substituted heteroaryl- and phenylsulfamoyl compounds” (Pfizer, Inc., priority 2004, dated 2007)

Test system: transition cows
Assay: Blood non-esterified fatty acid (NEFA) concentrations in transition cows
Type: in vivo, cow
Conditions: 0.5 mg/kg every other day from targeted day -7 pre partum and at calving, days 1–8, p<0.10, with the exception of day 5 (p=0.17)
Experimental: Determination of Chances in Blood Non-esterified Fatty Acid (NEFA) Concentrations and Liver Triglycerides Levels:
Compounds are administered once or several times in the transition period at dose levels predicted to be effective by comparing results of in-vitro receptor affinity tests in laboratory species and pharmacokinetic evaluations in cattle. NEFA levels are determined via standard laboratory methods, for example, using the commercial WAKO NEFA kit (Wako Chemical Co., USA, Dallas, Tex., 994-75409), and liver triglyceride content is determined using the method as described in the literature (J. K. Drackley, J. J. Veenhuizen, M. J. Richard and J. W. Young, J Dairy Sci, 1991, 74, 4254)).
All animals may be obtained from a commercial dairy farm approximately thirty days prior to anticipated calving date. […]
As soon as possible post-calving (˜30 minutes) the cow is transferred to the freestall barn for the next scheduled milking (6:00 hrs and 19:00 hrs). […] Pre and post-calving NEFA samples are analyzed using the WAKO NEFA-C test kit (#994-75409). […] Tissues are transported on ice and stored frozen at −70° F. At the conclusion of the study, samples are analysed of liver triglyceride levels using the method described by Drackley, J. K. et al. (1991, J Dairy Sci (74):4254–4264).

## Cc1ccc(S(=O)(=O)Nc2ccc(-c3ccc(OC(F)(F)F)cc3)cc2)cc1C(=O)O [Example T02, 2-Methyl-5-(4′-trifluoromethoxy-biphenyl-4-ylsulfamoyl)-benzoic acid]
  serum NEFA levels as compared to control: significantly lower
